Test results taken from patent publication US10508120B2, “TYK2 inhibitors and uses thereof” (Nimbus Lakshmi, Inc., priority 2017, dated 2019).
Like-named read-outs stand apart in the source and are kept apart here.

Experiments:
Tyk2 kinase domain (DH1) = Tyk2 kinase domain (DH1) (Homo sapiens (Human), UniProt P29597); test: Tyk2 Radioactive Kinase Assay; format: biochemical; conditions: read-out: Tyk2 JH1% Inhibition @ 10 μM
How it was run: (§1)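 Each kinase domain is incubated with test compound at 10 μM. Activity is then measured radiometrically and expressed as percent inhibition relative to uninhibited enzyme.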

[1] = biological target: human TYK2 (JH2domain-pseudokinase) (Homo sapiens (Human), UniProt P29597); test: TYK2 JH2 Domain Binding Assay (KINOMEscan)
How it was run: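 Competition binding of a DNA-tagged fusion of human TYK2 JH2 pseudokinase (G556–D888) with NFkB DNA-binding domain, from HEK293 extracts (<0.1 nM final), against immobilised ligand beads; 1 h shaking at room temperature, 0.9% DMSO. Bound kinase quantified by qPCR.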

JAK2 kinase domain (JH1) = JAK2 kinase domain (JH1) (Homo sapiens (Human), UniProt O60674); test: JAK2 Radioactive Kinase Assay; format: biochemical; conditions: read-out: JAK2 JH1% Inhibition @ 10 μM
How it was run: as §1

JAK2 kinase domain (JH1), sequence (O60674 849-1124): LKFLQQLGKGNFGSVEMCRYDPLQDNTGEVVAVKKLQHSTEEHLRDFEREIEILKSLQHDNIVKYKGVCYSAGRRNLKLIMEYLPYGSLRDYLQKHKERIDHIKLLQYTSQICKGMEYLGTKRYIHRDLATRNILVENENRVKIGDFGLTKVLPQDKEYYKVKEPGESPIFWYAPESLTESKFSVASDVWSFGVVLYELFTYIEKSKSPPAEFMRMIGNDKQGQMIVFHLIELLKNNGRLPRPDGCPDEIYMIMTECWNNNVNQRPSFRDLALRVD
human TYK2 (JH2domain-pseudokinase), sequence (P29597 556-888): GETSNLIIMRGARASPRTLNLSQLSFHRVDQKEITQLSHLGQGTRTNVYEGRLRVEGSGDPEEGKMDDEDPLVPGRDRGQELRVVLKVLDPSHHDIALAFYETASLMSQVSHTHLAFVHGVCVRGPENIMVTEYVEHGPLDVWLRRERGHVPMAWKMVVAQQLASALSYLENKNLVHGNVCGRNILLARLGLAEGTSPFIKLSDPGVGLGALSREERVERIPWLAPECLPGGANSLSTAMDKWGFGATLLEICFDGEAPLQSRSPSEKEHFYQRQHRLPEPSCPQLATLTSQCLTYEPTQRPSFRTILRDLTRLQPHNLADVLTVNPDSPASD
Tyk2 kinase domain (DH1), sequence (P29597 897-1176): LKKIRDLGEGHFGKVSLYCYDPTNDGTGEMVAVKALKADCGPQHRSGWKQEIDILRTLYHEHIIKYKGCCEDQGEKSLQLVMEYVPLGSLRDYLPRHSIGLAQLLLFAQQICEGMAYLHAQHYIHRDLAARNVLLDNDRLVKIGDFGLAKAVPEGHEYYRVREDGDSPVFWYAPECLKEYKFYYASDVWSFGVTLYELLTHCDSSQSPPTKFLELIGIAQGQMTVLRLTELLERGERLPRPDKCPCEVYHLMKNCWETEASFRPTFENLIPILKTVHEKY

## CNc1cc(Nc2cccn(-c3cncc(C)c3)c2=O)nc2c(C(=O)NC3CC3)cnn12 [I-301]
Tyk2 kinase domain (DH1); compound at 10 μM, ATP 10 μM
  inhibition at 10 µM: < 50%
[1]
  Kd: 0.2 to 1 nM
JAK2 kinase domain (JH1); compound at 10 μM, ATP 10 μM
  inhibition at 10 µM: < 50%

## CNc1cc(Nc2cc(Cl)cn(-c3cn(C4CC4)nc3C)c2=O)nc2c(C(=O)NC3CCC3)cnn12 [I-179]
Tyk2 kinase domain (DH1); compound at 10 μM, ATP 10 μM
  inhibition at 10 µM: < 50%
[1]
  Kd: 0.2 to 1 nM
JAK2 kinase domain (JH1); compound at 10 μM, ATP 10 μM
  inhibition at 10 µM: < 50%

## CNc1cc(Nc2cccc(C3CCCOC3)n2)nc2c(C(=O)NC3CC3)cnn12 (stereo not drawn) [I-508]
Tyk2 kinase domain (DH1); compound at 10 μM, ATP 10 μM
  inhibition at 10 µM: < 50%
[1]
  Kd: 0.2 to 1 nM
JAK2 kinase domain (JH1); compound at 10 μM, ATP 10 μM
  inhibition at 10 µM: < 50%

## COc1ncccc1Nc1cc(NCCCN2CCOCC2)n2ncc(C(=O)NC3CC3)c2n1 [I-376, N-cyclopropyl-5-((2-methoxypyridin-3-yl)amino)-7-((3-morpholinopropyl)amino)pyrazolo[1,5-a]pyrimidine-3-carboxamide]
Tyk2 kinase domain (DH1); compound at 10 μM, ATP 10 μM
  inhibition at 10 µM: < 50%
[1]
  Kd: 0.2 to 1 nM
JAK2 kinase domain (JH1); compound at 10 μM, ATP 10 μM
  inhibition at 10 µM: < 50%

## COc1ncccc1Nc1cc(NCCN2CCOCC2)n2ncc(C(=O)NC3CC3)c2n1 [I-387, N-cyclopropyl-5-((2-methoxypyridin-3-yl)amino)-7-((2-morpholinoethyl)amino)pyrazolo[1,5-a]pyrimidine-3-carboxamide]
Tyk2 kinase domain (DH1); compound at 10 μM, ATP 10 μM
  inhibition at 10 µM: < 50%
[1]
  Kd: 1 to 10 nM
JAK2 kinase domain (JH1); compound at 10 μM, ATP 10 μM
  inhibition at 10 µM: < 50%

## CNc1cc(Nc2cccn([C@@H]3CCCC[C@@H]3OC)c2=O)nc2c(C(=O)N[C@@H]3CC[C@H]3OC)cnn12 [I-1128]
Tyk2 kinase domain (DH1); 10 μM compound, 10 μM ATP
  inhibition at 10 µM: < 50%
[1]
  Kd: 1 to 10 nM
JAK2 kinase domain (JH1); 10 μM compound, 10 μM ATP
  inhibition at 10 µM: < 50%

## CNc1cc(Nc2cccn(C3CCOCC3)c2=O)nc2c(C(=O)N[C@@H]3CC[C@@H]3O)cnn12 [I-556]
Tyk2 kinase domain (DH1); compound at 10 μM, ATP 10 μM
  inhibition at 10 µM: < 50%
[1]
  Kd: < 0.2 nM
JAK2 kinase domain (JH1); compound at 10 μM, ATP 10 μM
  inhibition at 10 µM: < 50%

## CNc1cc(Nc2cccnc2OC)nc2c(-c3cn(C(C)C)nn3)cnn12 [I-1008, 3-(1-isopropyl-1H-1,2,3-triazol-4-yl)-N5-(2-methoxypyridin-3-yl)-N7-methylpyrazolo[1,5-a]pyrimidine-5,7-diamine]
Tyk2 kinase domain (DH1); 10 μM compound, 10 μM ATP
  inhibition at 10 µM: < 50%
[1]
  Kd: < 0.2 nM
JAK2 kinase domain (JH1); 10 μM compound, 10 μM ATP
  inhibition at 10 µM: 50 to 70%

## CNc1cc(Nc2cccn(-c3ccc(C)nc3)c2=O)nc2c(C(=O)N[C@@H]3C[C@@H]3F)cnn12 [I-766]
Tyk2 kinase domain (DH1); compound at 10 μM, ATP 10 μM
  inhibition at 10 µM: < 50%
[1]
  Kd: < 0.2 nM
JAK2 kinase domain (JH1); compound at 10 μM, ATP 10 μM
  inhibition at 10 µM: < 50%

## CNc1cc(Nc2cccnc2OC(F)(F)F)nc2c(C(N)=O)cnn12 [I-91]
Tyk2 kinase domain (DH1); compound at 10 μM, ATP 10 μM
  inhibition at 10 µM: < 50%
[1]
  Kd: < 0.2 nM
JAK2 kinase domain (JH1); compound at 10 μM, ATP 10 μM
  inhibition at 10 µM: < 50%

## CNc1cc(Nc2cc(C)cn(-c3ccn(C)n3)c2=O)nc2c(C(=O)NC3CCC3)cnn12 [I-251]
Tyk2 kinase domain (DH1); compound at 10 μM, ATP 10 μM
  inhibition at 10 µM: < 50%
[1]
  Kd: < 0.2 nM
JAK2 kinase domain (JH1); compound at 10 μM, ATP 10 μM
  inhibition at 10 µM: < 50%

## NC(=O)c1cnn2c(N)cc(Nc3cccnc3OC(F)(F)F)nc12 [I-102, 7-amino-5-((2-(trifluoromethoxy)pyridin-3-yl)amino)pyrazolo[1,5-a]-pyrimidine-3-carboxamide]
Tyk2 kinase domain (DH1); compound at 10 μM, ATP 10 μM
  inhibition at 10 µM: 70 to 90%
[1]
  Kd: 0.2 to 1 nM
JAK2 kinase domain (JH1); compound at 10 μM, ATP 10 μM
  inhibition at 10 µM: > 90%

## CNc1cc(Nc2cccn(-c3ccccn3)c2=O)nc2c(C(=O)NCC3(CO)CC3)cnn12 [I-684]
Tyk2 kinase domain (DH1); compound at 10 μM, ATP 10 μM
  inhibition at 10 µM: < 50%
[1]
  Kd: 0.2 to 1 nM
JAK2 kinase domain (JH1); compound at 10 μM, ATP 10 μM
  inhibition at 10 µM: < 50%

## CNc1cc(Nc2cccc([C@H]3CCCCO3)n2)nc2c(C(=O)N[C@H]3CC[C@H]3O)cnn12 [I-647]
Tyk2 kinase domain (DH1); compound at 10 μM, ATP 10 μM
  inhibition at 10 µM: < 50%
[1]
  Kd: < 0.2 nM
JAK2 kinase domain (JH1); compound at 10 μM, ATP 10 μM
  inhibition at 10 µM: < 50%

## CNc1cc(-c2cn(CCN3CCCCC3)c3ncccc23)nc2c(C(=O)N[C@@H]3CC[C@@H]3O)cnn12 [I-793]
Tyk2 kinase domain (DH1); compound at 10 μM, ATP 10 μM
  inhibition at 10 µM: < 50%
[1]
  Kd: < 0.2 nM
JAK2 kinase domain (JH1); compound at 10 μM, ATP 10 μM
  inhibition at 10 µM: < 50%

## CNc1cc(Nc2cccnc2OC)nc2c(C(=O)NCCC3CCCO3)cnn12 (stereo not drawn) [I-418, 5-((2-methoxypyridin-3-yl)amino)-7-(methylamino)-N-(2-(tetrahydrofuran-2-yl)ethyl)pyrazolo[1,5-a]pyrimidine-3-carboxamide]
Tyk2 kinase domain (DH1); compound at 10 μM, ATP 10 μM
  inhibition at 10 µM: < 50%
[1]
  Kd: 1 to 10 nM
JAK2 kinase domain (JH1); compound at 10 μM, ATP 10 μM
  inhibition at 10 µM: < 50%

## CNc1cc(Nc2cccnc2O[C@H]2CC[C@H](O)CC2)nc2c(C(=O)NC3CC3)cnn12 [I-231]
Tyk2 kinase domain (DH1); compound at 10 μM, ATP 10 μM
  inhibition at 10 µM: < 50%
[1]
  Kd: 0.2 to 1 nM
JAK2 kinase domain (JH1); compound at 10 μM, ATP 10 μM
  inhibition at 10 µM: < 50%

## CNc1cc(Nc2cccnc2OC2CC2)nc2c(C(=O)NC3CC(F)(F)C3)cnn12 [I-339, 5-((2-cyclopropoxypyridin-3-yl)amino)-N-(3,3-difluorocyclobutyl)-7-(methylamino)pyrazolo[1,5-a]pyrimidine-3-carboxamide]
Tyk2 kinase domain (DH1); compound at 10 μM, ATP 10 μM
  inhibition at 10 µM: < 50%
[1]
  Kd: 0.2 to 1 nM
JAK2 kinase domain (JH1); compound at 10 μM, ATP 10 μM
  inhibition at 10 µM: < 50%

## CNc1cc(Nc2cccnc2OC2CC2)nc2c(C(=O)NCCC(C)(C)O)cnn12 [I-422, 5-((2-cyclopropoxypyridin-3-yl)amino)-N-(3-hydroxy-3-methylbutyl)-7-(methylamino)pyrazolo[1,5-a]pyrimidine-3-carboxamide]
Tyk2 kinase domain (DH1); compound at 10 μM, ATP 10 μM
  inhibition at 10 µM: < 50%
[1]
  Kd: 1 to 10 nM
JAK2 kinase domain (JH1); compound at 10 μM, ATP 10 μM
  inhibition at 10 µM: < 50%

## CNc1cc(Nc2cccn(C3CCN(C)CC3)c2=O)nc2c(C(=O)N[C@@H]3CC[C@@H]3O)cnn12 [I-609]
Tyk2 kinase domain (DH1); compound at 10 μM, ATP 10 μM
  inhibition at 10 µM: < 50%
[1]
  Kd: < 0.2 nM
JAK2 kinase domain (JH1); compound at 10 μM, ATP 10 μM
  inhibition at 10 µM: < 50%

## CNc1cc(-c2cn(CCN3CCOCC3)c3ncccc23)nc2c(C(=O)N[C@H]3COC[C@H]3O)cnn12 [I-856, N-((3S,4S)-4-hydroxytetrahydrofuran-3-yl)-7-(methylamino)-5-(1-(2-morpholinoethyl)-1H-pyrrolo[2,3-b]pyridin-3-yl)pyrazolo[1,5-a]pyrimidine-3-carboxamide]
Tyk2 kinase domain (DH1); 10 μM compound, 10 μM ATP
  inhibition at 10 µM: < 50%
[1]
  Kd: 0.2 to 1 nM
JAK2 kinase domain (JH1); 10 μM compound, 10 μM ATP
  inhibition at 10 µM: < 50%
